Results published in patent US10822376B2, “Biologically active peptides” (Baxalta Incorporated, priority 2008, dated 2020).

Tested on: FVIII−/− (E17) mice
Assay: Tail clip assay in FVIII−/− mice (blood loss, survival)
Procedure: Groups of mice, typically 8-16 male and female exon 17 FVIII knockout mice with severe hemorrhagic diathesis, receive a single i.v. (tail vein), i.p. or s.c. bolus injection (10 ml/kg body weight). Two minutes before tail clip, animals are anesthetized by an i.p. application of 100 mg/kg ketamine and 5 mg/kg xylazine. Five minutes after i.v. and 60 minutes after i.p. or s.c. peptide or peptide derivative administration 0.5 cm of the tail tip is ablated. Blood dropping from the wound is collected in tubes containing 5.0 ml 0.04% NH3 for defined time periods, such as 0-2 minutes, 2-4 minutes, 4-6 minutes, 6-8, 8-10, 10-12, 12-14, 14-16, 16-20, 20-24, 24-28, 28-32, 32-42, 42-52 and 52-62 minutes. Blood cells in each tube are disrupted and hemoglobin is extracted by a three hour incubation period at room temperature followed by ultrasound treatment. The absorbance at 414 nm and 620 nm of the extracts is determined in micro titre plates. 620 nm is a reference wavelength and the A620 reading is subtracted from the A414 reading. The amount of blood in the extract corresponding to the subtracted reading is calculated from a standard curve created by known amounts of blood from wild type control mice, such as C57/BI6 mice. Parameters of the bleeding characteristics of the mice to be recorded are total blood loss, bleeding rate, bleeding time, 1 h, 2 h, 3 h, 4 h, 24 h and 48 h survival. Cumulative blood loss is calculated by summing up the amounts of blood for each time period. Data for the animals of a group are averaged and plotted against bleeding time. At each time point data sets for treatment and vehicle control groups are analysed by Student's t-test for statistical significance.
Parameters quantified were total blood loss, bleeding time, bleeding rate and survival.
Blood loss was monitored in the tail clip assay as described in the specific description for 62 minutes after tail clip. FVIII−/− mice were administered with rFVIII (Advate®) at 25, 50 or 100 U/kg i.v. or with vehicle alone. […] As a control, C57BI/6 mice were administered vehicle alone.
Vehicle was 5% DMSO, 5% Cremophor EL, 0.05% Tween 80 in water for injection.

Substance: Ac-RMKFDVWDLYFEIVW-NH2 [Peptide A01]
- Survival vs vehicle control (20 mg/kg i.v.): statistically significant longer survival
- Mean volume of blood loss following tail clip compared to vehicle control (20 mg/kg i.v. five minutes before tail clip, p<0.05 at most time points): significantly different
- p of difference in mean blood loss vs vehicle (20 mg/kg i.v., at 52 and 62 minutes after tail clip): < 0.01
- Survival (%) 2 hours (FVIII−/− mice, 20 mg/kg i.v. five minutes before tail clip, 2 hours (Table 26)): 56%
- Survival (%) 4 hours (FVIII−/− mice, 20 mg/kg i.v. five minutes before tail clip, 4 hours (Table 26)): 25%
- Survival (%) 24 hours (FVIII−/− mice, 20 mg/kg i.v. five minutes before tail clip, 24 hours (Table 26)): 6%
- Survival (%) 48 hours (FVIII−/− mice, 20 mg/kg i.v. five minutes before tail clip, 48 hours (Table 26)): 0%
- Survival (%) 2 hours (FVIII−/− mice, Exp 1, 20 mg/kg i.v., tail clip, 2 hours): 56%
- Survival (%) 3 hours (FVIII−/− mice, Exp 1, 20 mg/kg i.v., tail clip): 44%
- Survival (%) 4 hours (FVIII−/− mice, Exp 1, 20 mg/kg i.v., tail clip, 4 hours): 25%
- Survival (%) 24 hours (FVIII−/− mice, Exp 1, 20 mg/kg i.v., tail clip, 24 hours): 6%
- Survival (%) 2 hours (FVIII−/− mice, Exp 2 (repeat), 20 mg/kg i.v., tail clip, 2 hours): 63%
- Survival (%) 3 hours (FVIII−/− mice, Exp 2 (repeat), 20 mg/kg i.v., tail clip): 38%
- Survival (%) 4 hours (FVIII−/− mice, Exp 2 (repeat), 20 mg/kg i.v., tail clip, 4 hours): 31%
- Survival (%) 24 hours (FVIII−/− mice, Exp 2 (repeat), 20 mg/kg i.v., tail clip, 24 hours): 13%
- Total blood loss (% of Vehicle) (FVIII−/− mice, female, 20 mg/kg i.p., 0.5 cm tail clip): 72 % of Vehicle
- Survival 2 hours (%) (FVIII−/− mice, female, 20 mg/kg i.p., 0.5 cm tail clip, 2 hours): 75%
- Survival 4 hours (%) (FVIII−/− mice, female, 20 mg/kg i.p., 0.5 cm tail clip, 4 hours): 25%
- Survival 24 hours (%) (FVIII−/− mice, female, 20 mg/kg i.p., 0.5 cm tail clip, 24 hours): 25%
- Survival 2 hours (%) (FVIII−/− mice, female, 20 mg/kg i.v., 1 cm tail clip, 2 hours): 80%
- Survival 24 hours (%) (FVIII−/− mice, female, 20 mg/kg i.v., 1 cm tail clip, 24 hours): 10%
- Total blood loss (% of Vehicle) (FVIII−/− mice, male, 20 mg/kg i.p., 0.5 cm tail clip): 83 % of Vehicle
- Survival 2 hours (%) (FVIII−/− mice, male, 20 mg/kg i.p., 0.5 cm tail clip, 2 hours): 38%
- Survival 4 hours (%) (FVIII−/− mice, male, 20 mg/kg i.p., 0.5 cm tail clip, 4 hours): 25%
- Survival 24 hours (%) (FVIII−/− mice, male, 20 mg/kg i.p., 0.5 cm tail clip, 24 hours): 25%
- Survival 2 hours (%) (FVIII−/− mice, male, 20 mg/kg i.v., 1 cm tail clip, 2 hours): 20%
- Survival 24 hours (%) (FVIII−/− mice, male, 20 mg/kg i.v., 1 cm tail clip, 24 hours): 0%
- Compensation for lack of FVIII (reducing blood loss, increasing survival following tail clip) (conclusion): at least partially compensate for the lack of FVIII
- Gender effect on efficacy (i.v., tail clip 1 cm): more effective in female than male mice
- Difference in survival curves vs vehicle (male mice, 20 mg/kg i.p., 0.5 cm tail clip): no statistically significant difference
- Bleeding and survival in two independently performed experiments (repeat experiment): bleed less and survive longer
- Activity in the tail clip assay (summary): possessing activity
